According to patent publication US5830864A, “Antiherpes peptide derivatives having a ureido n-terminus” (priority 1995, dated 1998):
*1 amine or outer side, *2 acyl side, *3 side chain or, on linkers, in order; H or OH if unused. Where a SMILES comes first, the peptide text is derived from it. [ ]: non-standard residue; d: D form. The star is where a group is joined. Gly(1-adamantyl) = N[C@H](C(=O)O)C12CC3CC(CC(C3)C1)C2; Asp(3,3-(CH2)4) = N[C@H](C(=O)O)C1(C(=O)O)CCCC1; tBuAla = CC(C)(C)C[C@H](N)C(=O)O; Tle = CC(C)(C)[C@H](N)C(=O)O; NH(3-pentyl) = CCC(CC)N*; Pyrrolidide = C1CCN(*)C1; X2 = CC(C)(C)CC(C)(C)N*; CO = O=C([*:1])[*:2]; X1 = CCCC1(N*)CCCC1; X3 = CCCC(C)(C)N*; X4 = CCCC(CCC)N*

Target: HSV-1 ribonucleotide reductase (Human herpesvirus 1, UniProt P08543)
Test: biochemical
From the text: HSV-1 ribonucleotide reductase (partially purified) was obtained from quiescent BHK-21/C13 cells infected with strain F HSV-1 virus at 10 plaque forming units/cell as described by E. A. Cohen et al., J. Gen.
The number of units of the enzyme preparation used in each assay was constant, based on the specific activity of the enzyme preparation.

Chain of HSV-1 ribonucleotide reductase (P08543 whole entry): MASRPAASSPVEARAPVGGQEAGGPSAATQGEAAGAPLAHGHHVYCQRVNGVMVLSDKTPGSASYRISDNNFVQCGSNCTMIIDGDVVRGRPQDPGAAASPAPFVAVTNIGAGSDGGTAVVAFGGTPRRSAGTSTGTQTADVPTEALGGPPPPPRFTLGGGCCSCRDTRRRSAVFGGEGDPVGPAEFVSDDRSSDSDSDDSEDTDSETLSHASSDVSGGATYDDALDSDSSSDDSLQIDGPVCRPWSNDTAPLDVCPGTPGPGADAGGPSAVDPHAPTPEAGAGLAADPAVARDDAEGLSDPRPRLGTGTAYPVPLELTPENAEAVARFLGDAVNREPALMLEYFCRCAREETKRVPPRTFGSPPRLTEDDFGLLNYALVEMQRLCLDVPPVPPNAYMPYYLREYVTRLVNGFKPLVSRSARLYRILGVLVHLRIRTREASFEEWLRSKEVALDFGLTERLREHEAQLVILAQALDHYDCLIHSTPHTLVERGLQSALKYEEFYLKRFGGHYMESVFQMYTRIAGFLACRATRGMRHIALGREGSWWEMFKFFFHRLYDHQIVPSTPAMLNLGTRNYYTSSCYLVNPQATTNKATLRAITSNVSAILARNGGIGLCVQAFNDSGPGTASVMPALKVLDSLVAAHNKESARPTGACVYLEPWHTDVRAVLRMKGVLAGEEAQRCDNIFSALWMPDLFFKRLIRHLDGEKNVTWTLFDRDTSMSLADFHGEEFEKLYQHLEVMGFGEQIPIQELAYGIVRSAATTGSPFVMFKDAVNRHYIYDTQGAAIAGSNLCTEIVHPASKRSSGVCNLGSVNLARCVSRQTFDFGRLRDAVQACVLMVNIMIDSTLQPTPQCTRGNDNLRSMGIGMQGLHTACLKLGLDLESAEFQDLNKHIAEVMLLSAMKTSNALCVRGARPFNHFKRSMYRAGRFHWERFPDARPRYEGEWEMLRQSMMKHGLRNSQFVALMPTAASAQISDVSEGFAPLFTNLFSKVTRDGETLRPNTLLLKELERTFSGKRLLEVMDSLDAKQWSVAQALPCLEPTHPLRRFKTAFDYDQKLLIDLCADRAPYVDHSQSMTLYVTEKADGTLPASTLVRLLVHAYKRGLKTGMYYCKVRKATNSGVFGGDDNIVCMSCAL

In the case of `CCC(CC)NC(=O)N[C@H](C(=O)N[C@@H](CC(=O)N1CCCC1)C(=O)N[C@H](C(=O)N[C@@H](CC(C)(C)C)C(=O)O)C1(C(=O)O)CCCC1)C(C)(C)C` [Et2 CHNHC(O)-Tbg-Asp(pyrrolidino)-Asp(cyPn)-γMeLeu-OH] ({NH(3-pentyl)-CO}-[Tle]D(Pyrrolidide)[Asp(3,3-(CH2)4)][tBuAla]-OH), the IC50 is reported as 100 nM.
`CCC(CC)NC(=O)N[C@H](C(=O)N[C@@H](CC(=O)N1CCCC1)C(=O)N[C@H](C(=O)NCC(C)C)C1(C(=O)O)CCCC1)C(C)(C)C` [Et2 CHNHC(O)-Tbg-Asp(pyrrolidino)-Asp(cyPn)-NHCH2 CHMe2] was tested, and the IC50 was 600 nM.
`CCCC(CCC)NC(=O)N[C@H](C(=O)N[C@@H](CC(=O)N1CCCC1)C(=O)N[C@H](C(=O)N[C@@H](CC(C)(C)C)C(=O)O)C1(C(=O)O)CCCC1)C(C)(C)C` [Pr2 CHNHC(O)-Tbg-Asp(pyrrolidino)-Asp(cyPn)-γMeLeu-OH] ({X4-CO}-[Tle]D(Pyrrolidide)[Asp(3,3-(CH2)4)][tBuAla]-OH) showed an IC50 of 96 nM.
For `CCC(CC)NC(=O)N[C@H](C(=O)N[C@@H](CC(=O)N1CCCC1)C(=O)N[C@H](C(=O)NCC(C)(C)C)C1(C(=O)O)CCCC1)C(C)(C)C` [Et2 CHNHC(O)-Tbg-Asp(pyrrolidino)-Asp(cyPn)-NHCH2 CMe3], the IC50 was 130 nM.
In the case of `CC(C)NC(=O)N[C@H](C(=O)N[C@@H](CC(=O)N1CCCC1)C(=O)N[C@H](C(=O)N[C@H](CO)CC(C)(C)C)C1(C(=O)O)CCCC1)C(C)(C)C` [Me2 CHNHC(O)-Tbg-Asp(pyrrolidino)-Asp(cyPn)-γMeLeucinol], the IC50 is reported as 70 nM.
With `CNC(=O)N[C@H](C(=O)N[C@@H](CC(=O)N1CCCC1)C(=O)N[C@H](C(=O)N[C@H](CO)CC(C)(C)C)C1(C(=O)O)CCCC1)C(C)(C)C` [MeNHC(O)-Tbg-Asp(pyrrolidino)-Asp(cyPn)-γMeLeucinol] the IC50 was 890 nM.
Work on `CCC(CC)NC(=O)N[C@H](C(=O)N[C@@H](CC(=O)N1CCCC1)C(=O)N[C@H](C(=O)NCCC(C)(C)C)C1(C(=O)O)CCCC1)C(C)(C)C` [Et2 CHNHC(O)-Tbg-Asp(pyrrolidino)-Asp(cyPn)-NHCH2 CH2 CMe3] yielded an IC50 of 200 nM.
Work on `CCCC(CCC)NC(=O)N[C@H](C(=O)N[C@@H](CC(=O)N1CCCC1)C(=O)N[C@H](C(=O)N[C@H](CO)CC(C)(C)C)C1(C(=O)O)CCCC1)C(C)(C)C(=O)O` [Pr2 CHNHC(O)-Asp(diMe)-Asp(pyrrolidino)-Asp(cyPn)-γMeLeucinol] yielded an IC50 of 200 nM.
`CCCC1(NC(=O)N[C@H](C(=O)N[C@@H](CC(=O)N2CCCC2)C(=O)N[C@H](C(=O)N[C@@H](CC(C)(C)C)C(=O)O)C2(C(=O)O)CCCC2)C(C)(C)C)CCCC1` [(1-propylcyclopentyl)-NHC(O)-Tbg-Asp(pyrrolidino)-Asp(cyPn)-γMeLeu-OH] ({X1-CO}-[Tle]D(Pyrrolidide)[Asp(3,3-(CH2)4)][tBuAla]-OH) gave an IC50 of 130 nM.
In the case of `CCCC1(NC(=O)N[C@H](C(=O)N[C@@H](CC(=O)N2CCCC2)C(=O)N[C@H](C(=O)N[C@@H](CC(C)(C)C)C(=O)OCC)C2(C(=O)O)CCCC2)C(C)(C)C)CCCC1` [(1-propylcyclopentyl)-NHC(O)-Tbg-Asp(pyrrolidino)-Asp(cyPn)-γMeLeu-OEt] ({X1-CO}-[Tle]D(Pyrrolidide)[Asp(3,3-(CH2)4)][tBuAla]-OEt), the IC50 is reported as 200 nM.
`CCCC(CCC)NC(=O)N[C@H](C(=O)N[C@@H](CC(=O)N1CCCC1)C(=O)N[C@H](C(=O)N[C@H](C)C(C)(C)C)C1(C(=O)O)CCCC1)C(C)(C)C` [Pr2 CHNHC(O)-Tbg-Asp(pyrrolidino)-Asp(cyPn)-NHCH(CH3)CMe3] showed an IC50 of 180 nM.
In the case of `CCCC(CC)(CCC)NC(=O)N[C@H](C(=O)N[C@@H](CC(=O)N1CCCC1)C(=O)N[C@H](C(=O)N[C@H](CC)C(C)(C)C)C1(C(=O)O)CCCC1)C(C)(C)C` [EtPr2 CNHC(O)-Tbg-Asp(pyrrolidino)Asp(cyPn)-NH-(R)-CH(Et)CMe3], the IC50 is reported as 140 nM.
`CC(C)(C)C[C@@H](CO)NC(=O)[C@@H](NC(=O)[C@H](CC(=O)N1CCCC1)NC(=O)[C@@H](NC(=O)Nc1ccccc1)C(C)(C)C)C1(C(=O)O)CCCC1` [PhNHC(O)-Tbg-Asp(pyrrolidino)-Asp(cyPn)-γMeLeucinol] was tested, and the IC50 was 710 nM.
`CCC(CC)NC(=O)N[C@H](C(=O)N[C@@H](CC(=O)N1CCCC1)C(=O)N[C@H](C(=O)N[C@@H](CC(C)C)C(=O)O)[C@H](C(=O)O)C(C)C)C(C)(C)C` [Et2 CHNHC(O)-Tbg-Asp(pyrrolidino)-Asp{(R)-iPr}-Leu-OH] gave an IC50 of 570 nM.
`CCC(CC)NC(=O)N[C@H](C(=O)N[C@@H](CC(=O)N1CCCC1)C(=O)N[C@H](C(=O)N[C@H](CO)CC(C)(C)C)C1(C(=O)O)CCCC1)C12CC3CC(CC(C3)C1)C2` [Et2 CHNHC(O)--NH-(S)-CH(adamantyl)-C(O)-Asp(pyrrolidino)-Asp(cyPn)-γMeLeucinol] showed an IC50 of 160 nM.
In the case of `CCC(CC)NC(=O)N[C@H](C(=O)N[C@@H](CC(=O)N1CCCC1)C(=O)N[C@H](C(=O)N[C@@H](CC(C)(C)C)C(=O)O)C1(C(=O)O)CCCC1)C12CC3CC(CC(C3)C1)C2` [Et2 CHNHC(O)--NH-(S)-CH(adamantyl)-C(O)-Asp(pyrrolidino)-Asp(cyPn)-γMeLeu-OH] ({NH(3-pentyl)-CO}-[Gly(1-adamantyl)]D(Pyrrolidide)[Asp(3,3-(CH2)4)][tBuAla]-OH), the IC50 is reported as 82 nM.
Work on `CCCC(C)(C)NC(=O)N[C@H](C(=O)N[C@@H](CC(=O)N1CCCC1)C(=O)N[C@H](C(=O)N[C@@H](CC(C)(C)C)C(=O)O)C1(C(=O)O)CCCC1)C(C)(C)C` [PrMe2 CNHC(O)-Tbg-Asp(pyrrolidino)-Asp(cyPn)-γMeLeu-OH] ({X3-CO}-[Tle]D(Pyrrolidide)[Asp(3,3-(CH2)4)][tBuAla]-OH) yielded an IC50 of 100 nM.
`CCCC(CCC)NC(=O)N[C@H](C(=O)N[C@@H](CC(=O)C(CC)CC)C(=O)N[C@H](C(=O)NCC(C)(C)C)C1(C(=O)O)CCCC1)C(C)(C)C` [Pr2 CHNHC(O)-Tbg-NHCH(3-ethyl-2-oxopentyl)CO-Asp(cyPn)-NHCH2 CMe3] gave an IC50 of 400 nM.
`CCCC(CCC)NC(=O)N[C@H](C(=O)N[C@@H](CC(=O)N1CCCC1)C(=O)N[C@H](C(=O)N[C@H](CO)CC(C)(C)C)C1(C(=O)O)CCCC1)C(C)(C)C` [Title Compound of Example 8, Pr2 CHNHC(O)-Tbg-Asp(pyrrolidino)-Asp(cyPn)-γMeLeucinol] was tested, and the IC50 was 80 nM.
Molecule `CCC(CC)NC(=O)N[C@H](C(=O)N[C@@H](CC(=O)N1CCCC1)C(=O)N[C@H](C(=O)N[C@H](CO)CC(C)(C)C)[C@H](C(=O)O)C(C)C)C(C)(C)C` [Et2 CHNHC(O)-Tbg-Asp(pyrrolidino)-Asp{(R)-iPr}-γMeLeucinol] has an IC50 of 100 nM.
`CCCC(CCC)NC(=O)N[C@H](C(=O)N[C@@H](CC(=O)N1CCCC1)C(=O)N[C@H](C(=O)NCC(C)(C)C)C1(C(=O)O)CCCC1)C(C)(C)C` [Pr2 CHNHC(O)-Tbg-Asp(pyrrolidino)-Asp(cyPn)-NHCH2 CMe3] showed an IC50 of 180 nM.
`CC(C)(C)C[C@H](NC(=O)[C@@H](NC(=O)[C@H](CC(=O)N1CCCC1)NC(=O)[C@@H](NC(=O)NC(C)(C)CC(C)(C)C)C(C)(C)C)C1(C(=O)O)CCCC1)C(=O)O` [Me3 CCH2 CMe2 NHC(O)-Tbg-Asp(pyrrolidino)-Asp(cyPn)-γMeLeu-OH] ({X2-CO}-[Tle]D(Pyrrolidide)[Asp(3,3-(CH2)4)][tBuAla]-OH) gave an IC50 of 180 nM.
For `CCC(CC)NC(=O)N[C@H](C(=O)N[C@@H](CC(=O)N1CCCC1)C(=O)N[C@H](C(=O)N[C@@H](CC(C)(C)C)C(=O)O)[C@H](C(=O)O)C(C)C)C(C)(C)C` [Et2 CHNHC(O)-Tbg-Asp(pyrrolidino)-Asp{(R)-iPr}-γMeLeu-OH], the IC50 was 72 nM.
Molecule `CCC(CC)NC(=O)N[C@H](C(=O)N[C@@H](CC(=O)N1CCCC1)C(=O)N[C@H](C(=O)N[C@H](CO)CC(C)(C)C)C1(C(=O)O)CCCC1)C(C)(C)C` [Et2 CHNHC(O)-Tbg-Asp(pyrrolidino)-Asp(cyPn)-γMeLeucinol] has an IC50 of 98 nM.
With `CCCC(CCC)NC(=O)N[C@H](C(=O)N[C@@H](CC(=O)C1CCCCC1)C(=O)N[C@H](C(=O)NCC(C)(C)C)C1(C(=O)O)CCCC1)C(C)(C)C` [Pr2 CHNHC(O)-Tbg-NHCH(2-cyclohexyl-2-oxoethyl)C(O)-Asp(cyPn)-NHCH2 CMe3] the IC50 was 140 nM.
In the case of `CC(C)(C)C[C@@H](CO)NC(=O)[C@@H](NC(=O)[C@H](CC(=O)N1CCCC1)NC(=O)[C@@H](NC(=O)NC(C)(C)C)C(C)(C)C)C1(C(=O)O)CCCC1` [Me3 CNHC(O)-Tbg-Asp(pyrrolidino)-Asp(cyPn)-γMeLeucinol], the IC50 is reported as 100 nM.
Molecule `CCCC(C)(CCC)NC(=O)N[C@H](C(=O)N[C@@H](CC(=O)N1CCCC1)C(=O)N[C@H](C(=O)NCC(C)(C)C)C1(C(=O)O)CCCC1)C(C)(C)C` [MePr2 CNHC(O)-Tbg-Asp(pyrrolidino)-Asp(cyPn)-NHCH2 CMe3] has an IC50 of 160 nM.
Work on `CCCC(CCC)NC(=O)N[C@H](C(=O)N[C@@H](CC(=O)C1CCC1)C(=O)N[C@H](C(=O)NCC(C)(C)C)C1(C(=O)O)CCCC1)C(C)(C)C` [Pr2 CHNHC(O)-Tbg-NH-(S)-CH(2-cyclobutyl-2-oxoethyl)C(O)-Asp(cyPn)-NHCH2 CMe3] yielded an IC50 of 250 nM.
For `CC(C)(C)C[C@@H](CO)NC(=O)[C@@H](NC(=O)[C@H](CC(=O)N1CCCC1)NC(=O)[C@@H](NC(=O)NCc1ccccc1)C(C)(C)C)C1(C(=O)O)CCCC1` [BzlNHC(O)-Tbg-Asp(pyrrolidino)-Asp(cyPn)-γMeLeucinol], the IC50 was 410 nM.
Work on `CCCC(CCC)NC(=O)N[C@H](C(=O)N[C@@H](CC(=O)N1CCCC1)C(=O)N[C@H](C(=O)NCC(C)(C)CC)C1(C(=O)O)CCCC1)C(C)(C)C` [Pr2 CHNHC(O)-Tbg-Asp(pyrrolidino)-Asp(cyPn)-NHCH2 CMe2 Et] yielded an IC50 of 240 nM.
Molecule `CCCC(CCC)NC(=O)N[C@H](C(=O)N[C@@H](CC(=O)C1CCCC1)C(=O)N[C@H](C(=O)NCC(C)(C)C)C1(C(=O)O)CCCC1)C(C)(C)C` [Pr2 CHNHC(O)-Tbg-NH-(S)-CH(2-cyclopentyl-2-oxoethyl)C(O)-Asp(cyPn)-NHCH2 CMe3] has an IC50 of 200 nM.
